Test results as given in US8999957B2, “Heterocyclic compounds as ERK inhibitors” (Merck Sharp & Dohme Corp., priority 2010, dated 2015).
“And” between values parts separate entries of the source, which are not always exact repeats. Identical values can stand only once.

The compounds below were run against fully phosphorylated, mouse aERK2 enzyme (Mus musculus (Mouse), UniProt P63085) (assay: Active ERK2 (aERK) IMAP-FP assay, condition 2). Settings: aERK assay condition 2, 30 uM ATP; read-out: aERK IC50.
fully phosphorylated, mouse aERK2 enzyme, sequence (P63085 whole entry): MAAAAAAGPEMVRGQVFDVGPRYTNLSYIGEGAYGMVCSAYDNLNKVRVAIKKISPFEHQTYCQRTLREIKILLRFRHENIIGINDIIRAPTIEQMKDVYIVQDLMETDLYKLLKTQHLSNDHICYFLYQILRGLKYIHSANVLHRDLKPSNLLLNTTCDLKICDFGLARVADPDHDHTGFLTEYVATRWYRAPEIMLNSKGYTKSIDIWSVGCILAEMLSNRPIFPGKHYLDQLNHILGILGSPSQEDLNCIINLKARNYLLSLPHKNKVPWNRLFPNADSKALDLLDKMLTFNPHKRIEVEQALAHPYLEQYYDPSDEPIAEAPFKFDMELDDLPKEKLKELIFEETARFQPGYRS
Assay type: biochemical
In short: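 Phosphorylation by fully phosphorylated mouse ERK2 ran 40-45 min, then quenched with IMAP beads (1:1000) in binding buffer; fluorescence polarization read after 30 min binding equilibration.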
In the case of `COc1cccc(F)c1CN1C[C@H](NC(=O)c2ccc3[nH]nc(-c4ccnc(C)c4)c3c2)CC[C@H]1C(=O)NOCC1CC1` [N-[(3R,6S)-6-[(cyclopropylmethoxy)carbamoyl]-1-(2-fluoro-6-methoxybenzyl)piperidin-3-yl]-3-(2-methylpyridin-4-yl)-1H-indazole-5-carboxamide], the IC50 is reported as 0.6 nM. In the case of `COc1cccc(F)c1CN1C[C@H](NC(=O)c2ccc3[nH]nc(-c4ccnc(C)c4)c3c2)CC[C@H]1C(=O)NCC1CC1` [N-[(3R,6S)-6-[(cyclopropylmethyl)carbamoyl]-1-(2-fluoro-6-methoxybenzyl)piperidin-3-yl]-3-(2-methylpyridin-4-yl)-1H-indazole-5-carboxamide], the IC50 is reported as 4.9 nM. For `COc1cccc(F)c1CN1C[C@H](NC(=O)c2ccc3[nH]nc(-c4ccnc(C)c4)c3c2)CC[C@H]1C(=O)N(C)C1CC1` [N-[(3R,6S)-6-[cyclopropyl(methyl)carbamoyl]-1-(2-fluoro-6-methoxybenzyl)piperidin-3-yl]-3-(2-methylpyridin-4-yl)-1H-indazole-5-carboxamide], the IC50 was 2.5 nM. `COc1cccc(F)c1CN1C[C@H](NC(=O)c2ccc3[nH]nc(-c4ccnc(C)c4)c3c2)CC[C@H]1C(=O)NC1(C)CC1` [N-{(3R,6S)-1-(2-fluoro-6-methoxybenzyl)-6-[(1-methylcyclopropyl)carbamoyl]piperidin-3-yl}-3-(2-methylpyridin-4-yl)-1H-indazole-5-carboxamide] gave an IC50 of 4.7 nM. In the case of `COc1ccc(NC(=O)[C@@H]2CC[C@@H](NC(=O)c3ccc4[nH]nc(-c5ccnc(C)c5)c4c3)CN2Cc2c(F)cccc2OC)cc1F` [N-{(3R,6S)-1-(2-fluoro-6-methoxybenzyl)-6-[(3-fluoro-4-methoxyphenyl)carbamoyl]piperidin-3-yl}-3-(2-methylpyridin-4-yl)-1H-indazole-5-carboxamide], the IC50 is reported as 16.7 nM. `COc1cccc(F)c1CN1C[C@H](NC(=O)c2ccc3[nH]nc(-c4ccnc(C)c4)c3c2)CC[C@H]1C(=O)Nc1cccc(F)c1` [N-{(3R,6S)-1-(2-fluoro-6-methoxybenzyl)-6-[(3-fluorophenyl)carbamoyl]piperidin-3-yl}-3-(2-methylpyridin-4-yl)-1H-indazole-5-carboxamide] showed an IC50 of 15.2 nM. In the case of `COc1cccc(F)c1CN1C[C@H](NC(=O)c2ccc3[nH]nc(-c4ccnc(C)c4)c3c2)CC[C@H]1C(=O)N1CC(C)(O)C1` [N-{(3R,6S)-1-(2-fluoro-6-methoxybenzyl)-6-[(3-hydroxy-3-methylazetidin-1-yl)carbonyl]piperidin-3-yl}-3-(2-methylpyridin-4-yl)-1H-indazole-5-carboxamide], the IC50 is reported as 1.1 nM. For `COc1cccc(F)c1CN1C[C@H](NC(=O)c2ccc3[nH]nc(-c4ccnc(C)c4)c3c2)CC[C@H]1C(=O)Nc1ccc(F)cc1` [N-{(3R,6S)-1-(2-fluoro-6-methoxybenzyl)-6-[(4-fluorophenyl)carbamoyl]piperidin-3-yl}-3-(2-methylpyridin-4-yl)-1H-indazole-5-carboxamide], the IC50 was 23.4 nM. `COc1ccc(N(C)C(=O)[C@@H]2CC[C@@H](NC(=O)c3ccc4[nH]nc(-c5ccnc(C)c5)c4c3)CN2Cc2c(F)cccc2OC)cc1` [N-{(3R,6S)-1-(2-fluoro-6-methoxybenzyl)-6-[(4-methoxyphenyl)(methyl)carbamoyl]piperidin-3-yl}-3-(2-methylpyridin-4-yl)-1H-indazole-5-carboxamide] was tested, and the IC50 was 5.8 nM. For `COc1ccc(NC(=O)[C@@H]2CC[C@@H](NC(=O)c3ccc4[nH]nc(-c5ccnc(C)c5)c4c3)CN2Cc2c(F)cccc2OC)cc1` [N-{(3R,6S)-1-(2-fluoro-6-methoxybenzyl)-6-[(4-methoxyphenyl)carbamoyl]piperidin-3-yl}-3-(2-methylpyridin-4-yl)-1H-indazole-5-carboxamide], the IC50 was 11.6 nM.

Same assay, conditions: active ERK2; read-out: aErk2 Ic50
For `COc1cccc(F)c1CN1C[C@H](NC(=O)c2ccc3[nH]nc(-c4ccnc(C)c4)c3c2)CC[C@H]1C(=O)N1CC(F)(F)C1` [N-[(3R,6S)-6-[(3,3-difluoroazetidin-1-yl)carbonyl]-1-(2-fluoro-6-methoxybenzyl)-piperidin-3-yl]-3-(2-methylpyridin-4-yl)-1H-indazole-5-carboxamide], the IC50 was 14.8 nM and 10.4 nM. `COc1cccc(F)c1CN1C[C@H](NC(=O)c2ccc3[nH]nc(-c4ccnnc4)c3c2)CC[C@H]1C(=O)N1CC(F)(F)C1` [N-[(3R,6S)-6-[(3,3-difluoroazetidin-1-yl)carbonyl]-1-(2-fluoro-6-methoxybenzyl)-piperidin-3-yl]-3-pyridazin-4-yl-1H-indazole-5-carboxamide] was tested, and the IC50 was 61.2 nM. With `Cc1cc(-c2n[nH]c3ccc(C(=O)N[C@@H]4CC[C@@H](C(=O)N5CC(F)(F)C5)N(Cc5ccccc5F)C4)cc23)ccn1` [N-[(3R,6S)-6-[(3,3-difluoroazetidin-1-yl)carbonyl]-1-(2-fluorobenzyl)piperidin-3-yl]-3-(2-methylpyridin-4-yl)-1H-indazole-5-carboxamide] the IC50 was 56.6 nM. Work on `Cc1cc(-c2n[nH]c3ccc(C(=O)N[C@@H]4CC[C@@H](C(=O)N5CC(F)(F)C5)N(CCc5ccccc5)C4)cc23)ccn1` [N-[(3R,6S)-6-[(3,3-difluoroazetidin-1-yl)carbonyl]-1-(2-phenylethyl)piperidin-3-yl]-3-(2-methylpyridin-4-yl)-1H-indazole-5-carboxamide] yielded an IC50 of 232 nM. For `Cc1cc(-c2n[nH]c3ccc(C(=O)N[C@@H]4CC[C@@H](C(=O)N5CC(F)(F)C5)N(Cc5cccs5)C4)cc23)ccn1` [N-[(3R,6S)-6-[(3,3-difluoroazetidin-1-yl)carbonyl]-1-(thiophen-2-ylmethyl)-piperidin-3-yl]-3-(2-methylpyridin-4-yl)-1H-indazole-5-carboxamide], the IC50 was 25.8 nM. Compound `COc1cccc(F)c1CN1C[C@H](NC(=O)c2ccc3[nH]nc(-c4ccnc(C)c4)c3c2)CC[C@H]1C(=O)NCCCCl` [N-[(3R,6S)-6-[(3-chloropropyl)carbamoyl]-1-(2-fluoro-6-methoxybenzyl)piperidin-3-yl]-3-(2-methylpyridin-4-yl)-1H-indazole-5-carboxamide] has an IC50 of 11.8 nM. Compound `COc1cccc(F)c1CN1C[C@H](NC(=O)c2ccc3[nH]nc(-c4ccnc(C)c4)c3c2)CC[C@H]1C(=O)N1CCN(C(C)=O)CC1` [N-[(3R,6S)-6-[(4-acetylpiperazin-1-yl)carbonyl]-1-(2-fluoro-6-methoxybenzyl)-piperidin-3-yl]-3-(2-methylpyridin-4-yl)-1H-indazole-5-carboxamide] has an IC50 of 19.1 nM. In the case of `COc1cccc(F)c1CN1C[C@H](NC(=O)c2ccc3[nH]nc(-c4ccnc(C)c4)c3c2)CC[C@H]1C(=O)N1CCC(Cl)CC1` [N-[(3R,6S)-6-[(4-chloropiperidin-1-yl)carbonyl]-1-(2-fluoro-6-methoxybenzyl)-piperidin-3-yl]-3-(2-methylpyridin-4-yl)-1H-indazole-5-carboxamide], the IC50 is reported as 48.3 nM. `CCN(C)C(=O)[C@@H]1CC[C@@H](NC(=O)c2ccc3[nH]nc(-c4ccnc(C)c4)c3c2)CN1Cc1c(F)cccc1OC` [N-[(3R,6S)-6-[ethyl(methyl)carbamoyl]-1-(2-fluoro-6-methoxybenzyl)piperidin-3-yl]-3-(2-methylpyridin-4-yl)-1H-indazole-5-carboxamide] was tested, and the IC50 was 21.8 nM. Work on `COc1cccc(F)c1CN1C[C@H](NC(=O)c2ccc3[nH]nc(-c4ccc5nc(C)sc5c4)c3c2)CC[C@H]1C(N)=O` [N-[(3R,6S)-6-carbamoyl-1-(2-fluoro-6-methoxybenzyl)piperidin-3-yl]-3-(2-methyl-1,3-benzothiazaol-6-yl)-1H-indazole-5-carboxamide] yielded an IC50 of 3.6 nM. `COc1cccc(F)c1CN1C[C@H](NC(=O)c2ccc3[nH]nc(-c4ccnc(C)c4)c3c2)CC[C@H]1C(N)=O` [N-[(3R,6S)-6-carbamoyl-1-(2-fluoro-6-methoxybenzyl)piperidin-3-yl]-3-(2-methylpyridin-4-yl)-1H-indazole-5-carboxamide] gave an IC50 of 1 nM. For `COc1cccc(F)c1CN1C[C@H](NC(=O)c2ccc3[nH]nc(-c4ccncc4)c3c2)CC[C@H]1C(N)=O` [N-[(3R,6S)-6-carbamoyl-1-(2-fluoro-6-methoxybenzyl)piperidin-3-yl]-3-pyridin-4-yl-1H-indazole-5-carboxamide], the IC50 was 1.7 nM. With `COc1cccc(F)c1CN1C[C@H](NC(=O)c2ccc3[nH]nc(-c4ccnc(C)c4)c3c2)CC[C@H]1C(=O)NCCOCc1ccccc1` [N-[(3R,6S)-6-{[2-(benzyloxy)ethyl]-carbamoyl}-1-(2-fluoro-6-methoxybenzyl)-piperidin-3-yl]-3-(2-methylpyridin-4-yl)-1H-indazole-5-carboxamide] the IC50 was 121 nM. With `CCNC(=O)N1CCN(C(=O)[C@@H]2CC[C@@H](NC(=O)c3ccc4[nH]nc(-c5ccnc(C)c5)c4c3)CN2Cc2c(F)cccc2OC)CC1` [N-[(3R,6S)-6-{[4-(ethylcarbamoyl)piperazin-1-yl]carbonyl}-1-(2-fluoro-6-methoxy-benzyl)piperidin-3-yl]-3-(2-methylpyridin-4-yl)-1H-indazole-5-carboxamide] the IC50 was 16.4 nM. With `COc1cccc(F)c1CN1C[C@H](NC(=O)c2ccc3[nH]nc(-c4ccnc(C)c4)c3c2)CC[C@H]1C(=O)NC(C)C` [N-{(3R,6S)-1-(2-fluoro-6-methoxybenzyl)-6-[(1-methylethyl)carbamoyl]piperidin-3-yl}-3-(2-methylpyridin-4-yl)-1H-indazole-5-carboxamide] the IC50 was 46.5 nM. In the case of `COc1cccc(F)c1CN1C[C@H](NC(=O)c2ccc3[nH]nc(-c4ccnc(C)c4)c3c2)CC[C@H]1C(=O)NCC(F)(F)F` [N-{(3R,6S)-1-(2-fluoro-6-methoxybenzyl)-6-[(2,2,2-trifluoroethyl)carbamoyl]piperidin-3-yl}-3-(2-methylpyridin-4-yl)-1H-indazole-5-carboxamide], the IC50 is reported as 46.5 nM. `COc1cccc(F)c1CN1C[C@H](NC(=O)c2ccc3[nH]nc(-c4ccnc(C)c4)c3c2)CC[C@H]1C(=O)NCCO` [N-{(3R,6S)-1-(2-fluoro-6-methoxybenzyl)-6-[(2-hydroxyethyl)carbamoyl]piperidin-3-yl}-3-(2-methylpyridin-4-yl)-1H-indazole-5-carboxamide] was tested, and the IC50 was 5.6 nM. With `COCCNC(=O)[C@@H]1CC[C@@H](NC(=O)c2ccc3[nH]nc(-c4ccnc(C)c4)c3c2)CN1Cc1c(F)cccc1OC` [N-{(3R,6S)-1-(2-fluoro-6-methoxybenzyl)-6-[(2-methoxyethyl)carbamoyl]piperidin-3-yl}-3-(2-methylpyridin-4-yl)-1H-indazole-5-carboxamide] the IC50 was 56.7 nM.
